Reference: PubChem BioAssay AID328 (DTP/NCI, 2004)
Where “and” joins values, the source holds several entries; their conditions need not be identical. Equal values may be shown once. Inconclusive results and toxic doses are left out. Rule for the calls: active = survival T/C of 150% or more; inactive = T/C below 125% in these data.

System: BDF1 mice, P388 leukemia ip, median survival T/C
Assay: NCI In Vivo Anticancer Drug Screen. Data for tumor model P388 Leukemia (intraperitoneal) in B6D2F1 (BDF1) mice
Details: endpoint: median survival time, higher = longer survival
How it was run: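 Each value expresses how treatment altered survival: treated-mouse outcome over vehicle-mouse outcome, both groups bearing the transplanted tumour.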

[1] = dose: 1.56 mg/kg/injection, schedule: Q01DX009 (ip), vehicle: saline with Tween-80
[2] = dose: 3.12 mg/kg/injection, schedule: Q01DX009 (ip), vehicle: saline with Tween-80
[3] = dose: 12.5 mg/kg/injection, schedule: Q01DX009 (ip), vehicle: saline with Tween-80
[4] = dose: 25.0 mg/kg/injection, schedule: Q01DX009 (ip), vehicle: saline with Tween-80
[5] = dose: 50.0 mg/kg/injection, schedule: Q01DX009 (ip), vehicle: saline with Tween-80
[6] = dose: 100.0 mg/kg/injection, schedule: Q04DX003 (ip), vehicle: Klucel (hydroxypropylcellulose) (HPC)
[7] = dose: 200.0 mg/kg/injection, schedule: Q04DX003 (ip), vehicle: Klucel (hydroxypropylcellulose) (HPC)
[8] = dose: 6.25 mg/kg/injection, schedule: Q01DX009 (ip), vehicle: saline with Tween-80
[9] = dose: 100.0 mg/kg/injection, schedule: Q01DX009 (ip), vehicle: other
[10] = dose: 200.0 mg/kg/injection, schedule: Q01DX009 (ip), vehicle: other
[11] = dose: 6.25 mg/kg/injection, schedule: Q04DX003 (ip), vehicle: saline with Tween-80
[12] = dose: 12.5 mg/kg/injection, schedule: Q04DX003 (ip), vehicle: saline with Tween-80
[13] = dose: 25.0 mg/kg/injection, schedule: Q04DX003 (ip), vehicle: saline with Tween-80

Measured: T/C

C/C(=N\NC(=S)N(C)C)c1ccccn1
inactive: [1] 105 % of control | [2] 100 % of control

C=C1N(c2nc(Cl)nc(Cl)n2)c2ccccc2C1(C)C
inactive: [3] 109 % of control and 111 % of control | [4] 108 % of control and 112 % of control | [5] 116 % of control

CCOC(=O)/C(C#N)=C\C=C\c1ccccc1
inactive: [6] 86 % of control | [7] 90 % of control | dose: 400.0 mg/kg/injection, schedule: Q04DX003 (ip), vehicle: Klucel (hydroxypropylcellulose) (HPC) 90 % of control

COc1ccc2c(c1)-c1nn(CCO)c(-c3ccncc3)c1CC2
inactive: dose: 100.0 mg/kg/injection, schedule: Q04DX002 (ip), vehicle: DMSO 100 % of control | dose: 200.0 mg/kg/injection, schedule: Q04DX002 (ip), vehicle: DMSO 99 % of control | dose: 400.0 mg/kg/injection, schedule: Q04DX002 (ip), vehicle: DMSO 103 % of control

C=C(C(=O)OC1CC2CCC(C1)N2C)c1ccccc1 (configuration not stated)
inactive: dose: 1.25 mg/kg/injection, schedule: Q01DX009 (ip), vehicle: saline 100 % of control | dose: 2.5 mg/kg/injection, schedule: Q01DX009 (ip), vehicle: saline 100 % of control | dose: 5.0 mg/kg/injection, schedule: Q01DX009 (ip), vehicle: saline 100 % of control | dose: 10.0 mg/kg/injection, schedule: Q01DX009 (ip), vehicle: saline 90 % of control

Cc1ccc(C(=O)C2CN(C)CCC2(O)c2ccc(C)cc2)cc1 (configuration not stated)
inactive: dose: 100.0 mg/kg/injection, schedule: Q01DX001 (ip), vehicle: Klucel (hydroxypropylcellulose) (HPC) 90 % of control | dose: 200.0 mg/kg/injection, schedule: Q01DX001 (ip), vehicle: Klucel (hydroxypropylcellulose) (HPC) 110 % of control | dose: 400.0 mg/kg/injection, schedule: Q01DX001 (ip), vehicle: Klucel (hydroxypropylcellulose) (HPC) 90 % of control

CC(C#N)(Nc1ccccc1)c1ccco1 (configuration not stated)
inactive: dose: 6.25 mg/kg/injection, schedule: Q04DX003 (ip), vehicle: other 100 % of control | dose: 12.5 mg/kg/injection, schedule: Q04DX003 (ip), vehicle: other 100 % of control | dose: 25.0 mg/kg/injection, schedule: Q04DX003 (ip), vehicle: other 100 % of control

CN1CCN(C)P1OCC(F)(F)F
inactive: dose: 25.0 mg/kg/injection, schedule: Q01DX005 (ip), vehicle: saline 87 % of control | dose: 50.0 mg/kg/injection, schedule: Q01DX005 (ip), vehicle: saline 100 % of control | dose: 100.0 mg/kg/injection, schedule: Q01DX005 (ip), vehicle: saline 87 % of control

CC12CCC(O)CC1CCC1C2CCC2(C)C(C3=CC(=O)OC3)CCC12 (configuration not stated)
inactive: dose: 140.0 mg/kg/injection, schedule: Q01DX010 (ip), vehicle: carboxymethylcellulose (CMC) 122 % of control | dose: 280.0 mg/kg/injection, schedule: Q01DX010 (ip), vehicle: carboxymethylcellulose (CMC) 122 % of control

Oc1c(Cl)c(Cl)c(Cl)c2cccnc12
inactive: dose: 3.13 mg/kg/injection, schedule: Q01DX009 (ip), vehicle: saline with Tween-80 103 % of control | [8] 106 % of control | [3] 104 % of control

Cn1nnn2c(-c3ccccc3)nnc12
inactive: [4] 115 % of control | [5] 110 % of control | dose: 100.0 mg/kg/injection, schedule: Q01DX009 (ip), vehicle: saline with Tween-80 95 % of control

C=CC1C2CCC(C2)C1Cl (configuration not stated)
inactive: dose: 50.0 mg/kg/injection, schedule: Q01DX009 (ip), vehicle: other 100 % of control | [9] 104 % of control | [10] 107 % of control

OCC1(c2ccccc2)CCN(Cc2ccccc2)CC1
inactive: dose: 25.0 mg/kg/injection, schedule: Q01DX009 (ip), vehicle: Klucel (hydroxypropylcellulose) (HPC) 107 % of control | dose: 50.0 mg/kg/injection, schedule: Q01DX009 (ip), vehicle: Klucel (hydroxypropylcellulose) (HPC) 107 % of control | dose: 100.0 mg/kg/injection, schedule: Q01DX009 (ip), vehicle: Klucel (hydroxypropylcellulose) (HPC) 87 % of control | [6] 91 % of control | [7] 87 % of control

Cn1nnc(N/N=C/c2ccccc2)n1
inactive: [2] 102 % of control | dose: 4.0 mg/kg/injection, schedule: Q01DX009 (ip), vehicle: saline with Tween-80 121 % of control | [8] 93 % of control | [11] 112 % of control | dose: 8.0 mg/kg/injection, schedule: Q01DX009 (ip), vehicle: saline with Tween-80 123 % of control | dose: 12.0 mg/kg/injection, schedule: Q01DX009 (ip), vehicle: saline with Tween-80 120 % of control | [3] 97 % of control and 107 % of control | [12] 105 % of control | dose: 16.0 mg/kg/injection, schedule: Q01DX009 (ip), vehicle: saline with Tween-80 98 % of control | dose: 20.0 mg/kg/injection, schedule: Q01DX009 (ip), vehicle: saline with Tween-80 114 % of control | [4] 100 % of control and 107 % of control | [13] 99 % of control and 100 % of control

CCCCCCCCCCCC[Si](CCCCCCCCCCCC)(c1ccccc1)c1ccccc1
inactive: [9] 95 % of control | dose: 100.0 mg/kg/injection, schedule: Q04DX003 (ip), vehicle: saline with Tween-80 100 % of control | [10] 114 % of control | dose: 200.0 mg/kg/injection, schedule: Q04DX003 (ip), vehicle: saline with Tween-80 100 % of control | dose: 400.0 mg/kg/injection, schedule: Q01DX009 (ip), vehicle: other 109 % of control | dose: 400.0 mg/kg/injection, schedule: Q04DX003 (ip), vehicle: saline with Tween-80 100 % of control

O=C(O)c1ccccc1NC(=O)C(F)(F)F
inactive: dose: 25.0 mg/kg/injection, schedule: Q04DX003 (ip), vehicle: saline sonified 91 % of control | dose: 50.0 mg/kg/injection, schedule: Q04DX003 (ip), vehicle: saline sonified 91 % of control | dose: 100.0 mg/kg/injection, schedule: Q04DX003 (ip), vehicle: saline sonified 91 % of control

CC(C)NCc1ccccc1Sc1ccccc1
inactive: dose: 100.0 mg/kg/injection, schedule: Q01DX001 (ip), vehicle: saline with Tween-80 101 % of control

O=C(/C=C(\Cl)C(=O)NO)NO
active: dose: 100.0 mg/kg/injection, schedule: Q01DX009 (ip), vehicle: saline 154 % of control
inactive: dose: 11.0 mg/kg/injection, schedule: Q01DX009 (ip), vehicle: saline 103 % of control | dose: 16.0 mg/kg/injection, schedule: Q01DX009 (ip), vehicle: saline 107 % of control

O=C1OC(O)C(Cl)=C1Cl (configuration not stated)
inactive: [1] 101 % of control | [2] 107 % of control | [8] 109 % of control and 115 % of control | [3] 115 % of control

Cc1ccccc1N=C(N)Nc1ccccc1C
inactive: [11] 105 % of control | [12] 94 % of control | [13] 100 % of control
